One data set concerns Apis mellifera. Conditions: acute, mortality.
For a further data set, the system named is Canidae. Conditions: chronic; duration: 1 years; oral; Dog Other; gross pathology.
The subject of another data set is Oryctolagus sp. Particulars: reproduction developmental; clinical signs.
For a further data set, the system named is Pimephales promelas. Conditions: acute; duration: 96 hours; mortality.
Another data set deals with Rattus norvegicus. Particulars: for LD50: acute, mortality.
A further data set relates to Tagia sp. Particulars: chronic/long-term; duration: 56 days; reproduction.
Another data set concerns Folsomia candida. Particulars: chronic/long-term; duration: 28 days; reproduction.
For the next data set, the system named is Bibionidae. Particulars: chronic/long-term; duration: 28 days.
The test system of another data set is Oncorhynchus mykiss. Conditions: acute; duration: 96 hours; mortality.
A further data set concerns Aphidius rhopalosiphi. The data set can be described thus: LR50; higher = less toxic. Conditions: not reported; mortality.
A further data set has as its system Typhlodromus pyri. Description: LR50; higher = less toxic. Particulars: not reported; mortality.
Setting [1] is: chronic, duration: 2 years, organ weight.

Values after ≈ are worked out from the molar mass of the structure shown.

What is called NOAEL is the highest dose or exposure tested at which no adverse effect was seen. Usually LC50 stands for the concentration lethal to half of the exposed cells or organisms. Turning to `O=C(O)COc1ccc(Cl)cc1Cl` [2,4-Dichlorophenoxyacetic acid], the LD50 in the data set on Apis mellifera (dermal) was greater than 100 µg/piece; with Apis mellifera (oral, unspecified), 94 µg/piece; in the data set on Rattus norvegicus, 486 mg/kg. For the same molecule, the NOAEL in the data set with Canidae turned out to be 2.04 mg/kg-day; in the data set on Oryctolagus sp. it was 30 mg/kg-day; in the data set on Rattus norvegicus (chronic), 20.6 mg/kg-day; in the data set on Rattus norvegicus (setting [1]) it was 2.48 mg/kg-day. Besides, the LC50 in the data set with Pimephales promelas is 100 µg/mL (≈ 452 µM). The molecule further registered an NOEC with Tagia sp. of 62.5 mg/kg.

For the molecule `Oc1ccc(Cl)cc1Cl` [2,4-Dichlorophenol], the NOEC in the data set on Folsomia candida was found to be 0.63 mg/kg.

Turning to `O=C(O)CCCOc1ccc(Cl)cc1Cl` [2,4-Dichlorophenoxybutyric acid], the LD50 with Apis mellifera (dermal) was greater than 100 µg/piece; in the data set on Apis mellifera (oral, unspecified), greater than 100 µg/piece; with Colinus virginianus (acute, oral, mortality), 1540 mg/kg; with Rattus norvegicus (oral), 1470 mg/kg. Further, the NOEC with Bibionidae came out at 24.6 mg/kg; with Colinus virginianus (chronic), 101 mg/kg-day; with Tagia sp., 82.1 mg/kg. Besides, the NOAEL stood at 2.04 mg/kg-day with Canidae; 30 mg/kg-day with Oryctolagus sp.; 2.48 mg/kg-day with Rattus norvegicus (setting [1]); 22.5 mg/kg-day with Rattus norvegicus (reproduction developmental, reproduction). The LC50 in the data set with Oncorhynchus mykiss was found to be 3 µg/mL (≈ 12 µM). Moreover, the LR50 with Aphidius rhopalosiphi and with Typhlodromus pyri was greater than 1800 g/ha each time.

Values taken from EPA's ToxValDB 9.5 (doi:10.2903/j.efsa.2016.4500).
